Reference: US5503988A, “Process for producing a cholesterol-reduced substance” (priority 1992, dated 1996)
Like-named read-outs stand apart in the source and are kept apart here.

How the values were obtained:
[1] = system: cholesterol oxidase from Botrytis cinerea CO-33; format: biochemical
Procedure: To 0.1 ml of 1 mM cholesterol micelle solution containing 0,33% Triton X-100 is added 0.3 ml of 20 mM phosphate/citrate buffer (pH 6.0), 0.05 ml of the enzyme solution is added to the mixture, and the reaction is carried out at 37° C. for 10 minutes. 0.05 ml of chloroform is added thereto to extract sterol, stopping the reaction.
Cholestenone in the reaction mixture is determined with a TLC/FID IATROSCAN (product to Diayatron Co.). […] The enzyme activity which produces 1 μmol of cholestenone per minute is defined as 1 unit.

[2] = system: epicholesterol dehydrogenase from Mycobacterium sp. EPI-40; format: biochemical
Procedure: With 0.1 ml of a 1 mM epicholesterol micelle solution containing 0.33% Triton X-100 are mixed 0.3 ml of 20 mM Tris-HCl buffer (pH 8.0) containing 1 mM dithiothreitol, 0.1 ml of a 10 mM NAD solution, and 0.01 ml of 50 mM magnesium chloride. 0.05 ml of the enzyme solution is added to the mixture, and the mixture is allowed to stand at 37° C. for 2 hours. 0.05 ml of chloroform is added and sterol is extracted to stop the reaction.
Cholestenone produced in the reaction mixture is determined with high performance liquid chromatography. A quantitative determination is made using an ODS column (Inertsil ODS-2 column, 4.6×250 mm, product of GL Science Co.), using methanol as the mobile phase. […] The enzyme activity which produces 1 μmol of cholestenone per minute is defined as 1 unit.

SMILES	residual activity (activity without inhibitor defined as 100%) ([1]; pH 6) [%]	residual activity (activity without inhibitor defined as 100%) ([2]; pH 8) [%]	residual activity (activity without inhibitor defined as 100%) ([1]; 1 mM inhibitor added, reaction for 10 minutes at pH 6.0, 37° C.) [%]	residual activity (activity without inhibitor defined as 100%) ([2]; 1 mM inhibitor added, allowed to stand 2 hours at pH 8.0, 37° C.) [%]
O=C(O)CI [iodoacetic acid]	89	67		
O=C(O)CN(CCN(CC(=O)O)CC(=O)O)CC(=O)O [ethylenediamine tetraacetate]	93	71		
O=S(=O)(O)c1cc[c]([Hg][Cl])cc1 [p-chloromercury phenylsulfonate]			100	7
